Data on 19 molecules can be found in patent publication US4278678A, “Substituted oxy-cyclohexylacetic acid derivatives” (Kaken Chemical Co., Ltd., priority 1978, dated 1981).

Read-outs that look alike come from different tables or passages of the source. Bounds are passed on as bounds.

One may read the LD50 as the dose at which mortality reaches 50%.

Data set [1] is described as follows: acute toxicity tests in mice (Test 2). As to conditions: mouse, in vivo; male mice, oral, in olive oil; mortality after 72 hours, area method. The procedure:
In the acute toxicity tests, male mice (weight: 22 to 25 g) were used in groups of 10 each.
Each active ingredient was dissolved in olive oil and the solution was orally administrated in a volume corresponding to the body weight.
LD50 was calculated by the area method from the mortal percent after 72 hours from the administration.

Data set [2] deals with rats with dietary hyperlipidemia. The data set is described as follows: The antihyperlipidemic activity in rats with dietary hyperlipidemia (Test 1). The conditions noted are these: Rattus norvegicus, cholesterol diet, 100 mg/kg oral once daily for 4 days, 24 hours after administration. In kind it is in vivo, Wister type male rats. As to the method: The antihyperlipidemic activity in rats with dietary hyperlipidemia.
In the tests, Wister type male rats (weight: 140 g) were used in groups of 6 each.
A feed containing 2% of cholesterol, 1% of sodium cholate and 5% of coconut oil was given for 4 days to cause hyperlipidemia.
Each active ingredient was suspended in a 1% aqueous solution of Tween 80 (® polyoxyethylene sorbitane monoalkylate) and the suspension was orally administered in a dose of 100 mg/kg once daily for 4 days starting with the supply of the cholesterol supplemented diet.
After 24 hours from the administration, blood was sampled and the concentration of total cholesterols in blood-plasma was measured by the method described in Clinical chemistry Vol. 22 page 393 (1968) and the concentration of triglyceride (neutral fat) was measured by Fletcher method (Clinica Chimica Acta) Vol. 10 page 451 (1964).
As the active ingredients, the compounds of the invention shown in Table and ethyl-α-(p-chlorophenoxy)-isobutylate having the formula [drawing 25] were used.

[3] abbreviates: total cholesterol in blood-plasma, read-out: Antihypertipidemic activity (%) Cholesterol.
Where [4] appears, read: triglyceride (neutral fat), Fletcher method, read-out: Antihypertipidemic activity (%) Triglyceride.

The molecule `CCOC(=O)C(Oc1ccc(-c2ccccc2)cc1)C1CCCCC1` (stereo not drawn) [Compound 6, Ethyl α-(p-phenylphenoxy)α-cyclohexylacetate] gave an LD50 at 72 h in data set [1] above 3000 mg/kg. The inhibition in vivo at 100 mg/kg in data set [2] (setting [3]) stood at 52.3%; in data set [2] (setting [4]), 44%.

As to `CCOC(=O)C(Oc1ccc(-c2ccc(Cl)cc2)cc1)C1CCCCC1` (stereo not drawn) [Compound 18], in data set [1], the LD50 at 72 h was above 3000 mg/kg. Further, the inhibition in vivo at 100 mg/kg is 43.7% in data set [2] (setting [3]) and 40.5% in data set [2] (setting [4]).

In data set [1], `CCOC(=O)C(Oc1ccc(CC)cc1)C1CCCCC1` (stereo not drawn) [Compound 14, Ethyl α-(p-ethylphenoxy)α-cyclohexylacetate] gave an LD50 at 72 h above 3000 mg/kg. Also, the inhibition in vivo at 100 mg/kg in data set [2] (setting [3]) is 42.6%; in data set [2] (setting [4]), 64.8%.

In data set [1], `CCOC(=O)C(Oc1cccc(C)c1)C1CCCCC1` (stereo not drawn) [Compound 13] registered an LD50 at 72 h above 3000 mg/kg. For the same molecule, the inhibition in vivo at 100 mg/kg worked out at 7.9% in data set [2] (setting [3]) and 59.7% in data set [2] (setting [4]).

In turn, `CCOC(=O)C(Oc1ccc(Oc2ccc(Cl)cc2)cc1)C1CCCCC1` (stereo not drawn) [Compound 17] gave an LD50 at 72 h in data set [1] above 3000 mg/kg. Besides, the inhibition in vivo at 100 mg/kg was 45.3% in data set [2] (setting [3]) and 46.5% in data set [2] (setting [4]).

Turning to `CCOC(=O)C(Oc1cccc(C(F)(F)F)c1)C1CCCCC1` (stereo not drawn) [Compound 1], the 50% lethal dose (LD50) at 72 h in data set [1] was determined as 2500 mg/kg. In addition, the results for the inhibition in vivo at 100 mg/kg in data set [2] (setting [3]) and in data set [2] (setting [4]) were 12.1% and 49.3%, respectively.

In turn, `CCOC(=O)C(Oc1c(C)cccc1C)C1CCCCC1` (stereo not drawn) [Compound 4] returned an LD50 at 72 h in data set [1] above 3000 mg/kg. For the same molecule, the inhibition in vivo at 100 mg/kg is 38.5% in data set [2] (setting [3]) and 0% in data set [2] (setting [4]).

In turn, `CCOC(=O)C(Oc1ccc2c(c1)CCCC2)C1CCCCC1` (stereo not drawn) [Compound 10, Ethyl α-(5,6,7,8-tetrahydro-2-naphthoxy)-α-cyclohexylacetate] showed an LD50 at 72 h in data set [1] of 2500 mg/kg. Moreover, the inhibition in vivo at 100 mg/kg worked out at 52.1% in data set [2] (setting [3]) and 44.4% in data set [2] (setting [4]).

Consider `CCOC(=O)C(Oc1ccc(C2CCCCC2)cc1)C1CCCCC1` (stereo not drawn) [Compound 7, Ethyl α-(p-cyclohexylphenoxy)α-cyclohexylacetate], for which, in data set [1], the LD50 at 72 h was above 3000 mg/kg. Further, the figures for the inhibition in vivo at 100 mg/kg in data set [2] (setting [3]) and in data set [2] (setting [4]) were 42.6% and 51.6%, respectively.

In data set [1], `CCOC(=O)C(Oc1ccc(C(C)=O)cc1)C1CCCCC1` (stereo not drawn) [Compound 11] showed an LD50 at 72 h above 3000 mg/kg. Further, the inhibition in vivo at 100 mg/kg in data set [2] (setting [3]) worked out at 31.8%; in data set [2] (setting [4]) it was 30.9%.

Consider `CCOC(=O)C(Oc1ccc(C(C)CC)cc1)C1CCCCC1` (stereo not drawn) [Compound 8], for which the LD50 at 72 h in data set [1] was above 3000 mg/kg. The inhibition in vivo at 100 mg/kg in data set [2] (setting [3]) turned out to be 36.7%; in data set [2] (setting [4]) it was 17.1%.

In the case of `O=C(O)C(Oc1ccc(C2CCCCC2)cc1)C1CCCCC1` (stereo not drawn) [Compound 19, α-(p-cyclohexylphenoxy)α-cyclohexylacetic acid], the LD50 at 72 h in data set [1] was above 3000 mg/kg. The inhibition in vivo at 100 mg/kg was 35.8% in data set [2] (setting [3]) and 32.4% in data set [2] (setting [4]).

As to `CCOC(=O)C(Oc1ccc(C(C)(C)c2ccccc2)cc1)C1CCCCC1` (stereo not drawn) [Compound 9], the LD50 at 72 h in data set [1] was above 3000 mg/kg. The inhibition in vivo at 100 mg/kg in data set [2] (setting [3]) amounted to 40.3%; in data set [2] (setting [4]) it was 28.1%.

In turn, `CCOC(=O)C(Oc1ccc(Cl)c2ccccc12)C1CCCCC1` (stereo not drawn) [Compound 15] had a 50% lethal dose (LD50) at 72 h in data set [1] of 2500 mg/kg. For the same molecule, the results for the inhibition in vivo at 100 mg/kg in data set [2] (setting [3]) and in data set [2] (setting [4]) were 0% and 53%, respectively.

For the molecule `CCOC(=O)C(Oc1ccc(Cl)cc1)C1CCCCC1` (stereo not drawn) [Compound 3], the LD50 at 72 h in data set [1] is above 3000 mg/kg. Moreover, the results for the inhibition in vivo at 100 mg/kg in data set [2] (setting [3]) and in data set [2] (setting [4]) were 43.3% and 31.5%, respectively.

As for `CCOC(=O)C(Oc1cccc(C(C)=O)c1)C1CCCCC1` (stereo not drawn) [Compound 12], the LD50 at 72 h in data set [1] is above 3000 mg/kg. In addition, the inhibition in vivo at 100 mg/kg in data set [2] (setting [3]) is 14.3%; in data set [2] (setting [4]), 11.5%.

As for `CCOC(=O)C(Oc1cccnc1)C1CCCCC1` (stereo not drawn) [Compound 2], the LD50 at 72 h in data set [1] worked out at 2500 mg/kg. Moreover, the inhibition in vivo at 100 mg/kg in data set [2] (setting [3]) worked out at 0%; in data set [2] (setting [4]), 45%.

`CCOC(=O)C(Oc1ccc(OC)cc1)C1CCCCC1` (stereo not drawn) [Compound 5] gave an LD50 at 72 h in data set [1] above 3000 mg/kg. Also, the figures for the inhibition in vivo at 100 mg/kg in data set [2] (setting [3]) and in data set [2] (setting [4]) were 39% and 8.9%, respectively.

Molecule `CCOC(=O)C(Oc1ccc(Oc2ccccc2)cc1)C1CCCCC1` (stereo not drawn) [Compound 16, ethyl α-(p-phenoxyphenoxy)α-cyclohexylacetate] showed a 50% lethal dose (LD50) at 72 h in data set [1] above 3000 mg/kg. Moreover, the values for the inhibition in vivo at 100 mg/kg in data set [2] (setting [3]) and in data set [2] (setting [4]) were 40.8% and 38.7%, respectively.
